The values that follow are results of earlier work, collected in PubChem BioAssay AID1259409 (Chemical Carcinogenesis Research Information System (CCRIS), 2018).

The data set has as its system rodent chemically induced tumor inhibition, incidence and multiplicity. The experiment in a line: CCRIS tumor inhibitor studies.

Regarding `Cc1cc(C(C)(C)C)c(O)c(C(C)(C)C)c1`, the “tumour outcome (control, treated, inhibition, significance)” value is on record as 1/10 (10%), 4/9 (44%), -340%, not calculated (Carcinogen: 1,2-DIMETHYLHYDRAZINE DIHYDROCHLORIDE, 306-37-6, Dose [Inhibitor]: 6600 PPM IN DIET FOR 23 WK (STUDY DURATION: 23 WK), Route [Inhibitor]: ORAL, Species: RAT, Strain/Sex: SPRAGUE-DAWLEY MALE, Target Tissue: Type of Lesion: CECUM: TUMOR, Dose [Carcinogen]: 30 MG/KG IN SALINE 1/WK FOR THE FIRST 9 WK OF STUDY (10 DOSES), SIMULTANEOUSLY WITH INHIBITOR, Promoter: NONE USED); 10/10 (100%), 9/9 (100%), 0%, not calculated (Carcinogen: 1,2-DIMETHYLHYDRAZINE DIHYDROCHLORIDE, 306-37-6, Dose [Inhibitor]: 6600 PPM IN DIET FOR 23 WK (STUDY DURATION: 23 WK), Route [Inhibitor]: ORAL, Species: RAT, Strain/Sex: SPRAGUE-DAWLEY MALE, Target Tissue: Type of Lesion: COLON: TUMOR, Dose [Carcinogen]: 30 MG/KG IN SALINE 1/WK FOR THE FIRST 9 WK OF STUDY (10 DOSES), SIMULTANEOUSLY WITH INHIBITOR, Promoter: NONE USED); 8/10 (80%), 5/9 (56%), 30%, not calculated (Carcinogen: 1,2-DIMETHYLHYDRAZINE DIHYDROCHLORIDE, 306-37-6, Dose [Inhibitor]: 6600 PPM IN DIET FOR 23 WK (STUDY DURATION: 23 WK), Route [Inhibitor]: ORAL, Species: RAT, Strain/Sex: SPRAGUE-DAWLEY MALE, Target Tissue: Type of Lesion: DUODENUM: TUMOR, Dose [Carcinogen]: 30 MG/KG IN SALINE 1/WK FOR THE FIRST 9 WK OF STUDY (10 DOSES), SIMULTANEOUSLY WITH INHIBITOR, Promoter: NONE USED); 5/18 (28%), 4/19 (21%), 25%, not calculated (Carcinogen: 1,2-DIMETHYLHYDRAZINE, 540-73-8, Dose [Inhibitor]: 0, 0.5% IN DIET BEGINNING 1 WK POST LAST CARCINOGEN DOSE AND CONTINUING FOR 36 WK (STUDY DURATION: 40 WK), Route [Inhibitor]: ORAL, Species: RAT, Strain/Sex: F344/MALE, Target Tissue: Type of Lesion: COLON: ADENOMA, Dose [Carcinogen]: 20 MG/KG 1/WK FOR 4 WK, Promoter: NONE USED); 7/18 (39%), 9/19 (48%), -23%, not calculated (Carcinogen: 1,2-DIMETHYLHYDRAZINE, 540-73-8, Dose [Inhibitor]: 0, 0.5% IN DIET BEGINNING 1 WK POST LAST CARCINOGEN DOSE AND CONTINUING FOR 36 WK (STUDY DURATION: 40 WK), Route [Inhibitor]: ORAL, Species: RAT, Strain/Sex: F344/MALE, Target Tissue: Type of Lesion: COLON: CARCINOMA, Dose [Carcinogen]: 20 MG/KG 1/WK FOR 4 WK, Promoter: NONE USED); 100%, 100%, 0%, not significant (Carcinogen: 1,2-DIMETHYLHYDRAZINE, 540-73-8, Dose [Inhibitor]: 0, 250 MG/KG BW IN CORN OIL 1/D FOR 2 WK PRIOR TO FIRST CARCINOGEN DOSE THEN 3/WK FOR DURATION OF STUDY (STUDY DURATION:, Route [Inhibitor]: GAVAGE, Species: RAT, Strain/Sex: BD6/MALE, Target Tissue: Type of Lesion: INTESTINE: TUMOR, Dose [Carcinogen]: 20 MG/KG BW 1/WK FOR 20 WK, Promoter: NONE USED). Moreover, the “tumour outcome (control, treated, inhibition, significance)” value is given as 9/14 (64%), 3/7 (43%), 33%, not calculated (Carcinogen: 1,2-DIMETHYLHYDRAZINE, 540-73-8, Dose [Inhibitor]: 0.5% IN DIET STARTING 2 WK PRIOR TO CARCINOGEN TREATMENT AND CONTINUING FOR DURATION OF STUDY (STUDY DURATION: 28 WK), Route [Inhibitor]: ORAL, Species: RAT, Strain/Sex: SPRAGUE-DAWLEY/MALE, Target Tissue: Type of Lesion: COLON: ADENOCARCINOMA, Dose [Carcinogen]: 20 MG/KG BW IN BACTERIOSTATIC SALINE 1/WK FOR 20 WK, Promoter: NONE USED); 9/18 (50%), 15/25 (60%), -20%, not significant (Carcinogen: 1,2-DIMETHYLHYDRAZINE, 540-73-8, Dose [Inhibitor]: 0.75% IN DIET FOR LIFE BEGINNING AT 8 WK OF AGE (STUDY DURATION: 10 MO POST FIRST CARCINOGEN TREATMENT), Route [Inhibitor]: ORAL, Species: MOUSE, Strain/Sex: BALB/FEMALE, Target Tissue: Type of Lesion: LARGE INTESTINE: TUMOR, Dose [Carcinogen]: 20 MG/KG BW IN SALINE FOR 10 WK BEGINNING AT 11 WK OF AGE, Promoter: NONE USED); 15/20 (75%), 12/35 (34%), 55%, p=0.0036 (Carcinogen: 1,2-DIMETHYLHYDRAZINE, 540-73-8, Dose [Inhibitor]: 0.75% IN DIET FOR LIFE BEGINNING AT 8 WK OF AGE (STUDY DURATION: 10 MO POST FIRST CARCINOGEN TREATMENT), Route [Inhibitor]: ORAL, Species: MOUSE, Strain/Sex: BALB/MALE, Target Tissue: Type of Lesion: LARGE INTESTINE: TUMOR, Dose [Carcinogen]: 20 MG/KG BODY WEIGHT IN SALINE FOR 10 WK BEGINNING AT 11 WK OF AGE, Promoter: NONE USED); 20/20 (100%), 18/18 (100%), 0%, not calculated (Carcinogen: 2-ACETYLAMINOFLUORENE, 53-96-3, Dose [Inhibitor]: 0, 100 PPM IN DIET CONCURRENTLY WITH CARCINOGEN FOR STUDY DURATION (STUDY DURATION: 76 WK), Route [Inhibitor]: ORAL, Species: RAT, Strain/Sex: F344/MALE, Target Tissue: Type of Lesion: LIVER: HEPATOCELLULAR TUMOR, Dose [Carcinogen]: 50 PPM IN DIET FOR 76 WK); 1/17 (6%), 0/16 (0%), 100%, not calculated (Carcinogen: 2-ACETYLAMINOFLUORENE, 53-96-3, Dose [Inhibitor]: 0, 100 PPM IN SEMISYNTHETIC DIET CONCURRENTLY WITH CARCINOGEN FOR STUDY DURATION (STUDY DURATION: 76 WK), Route [Inhibitor]: ORAL, Species: RAT, Strain/Sex: F344/MALE, Target Tissue: Type of Lesion: BLADDER: CARCINOMA, Dose [Carcinogen]: 50 PPM IN DIET FOR 76 WK); 17/17 (100%), 16/16 (100%), 0%, not significant (Carcinogen: 2-ACETYLAMINOFLUORENE, 53-96-3, Dose [Inhibitor]: 0, 100 PPM IN SEMISYNTHETIC DIET CONCURRENTLY WITH CARCINOGEN FOR STUDY DURATION (STUDY DURATION: 76 WK), Route [Inhibitor]: ORAL, Species: RAT, Strain/Sex: F344/MALE, Target Tissue: Type of Lesion: LIVER: HEPATOCELLULAR TUMORS, Dose [Carcinogen]: 50 PPM IN DIET FOR 76 WK). Besides, the “tumour outcome (control, treated, inhibition, significance)” value is given as 20/20 (100%), 17/17 (100%), 0%, not calculated (Carcinogen: 2-ACETYLAMINOFLUORENE, 53-96-3, Dose [Inhibitor]: 0, 300 PPM IN DIET CONCURRENTLY WITH CARCINOGEN FOR STUDY DURATION (STUDY DURATION: 76 WK), Route [Inhibitor]: ORAL, Species: RAT, Strain/Sex: F344/MALE, Target Tissue: Type of Lesion: LIVER: HEPATOCELLULAR TUMOR, Dose [Carcinogen]: 50 PPM IN DIET FOR 76 WK) and 20/20 (100%), 19/19 (100%), 0%, not calculated (Carcinogen: 2-ACETYLAMINOFLUORENE, 53-96-3, Dose [Inhibitor]: 0, 1000 PPM IN DIET CONCURRENTLY WITH CARCINOGEN FOR STUDY DURATION (STUDY DURATION: 76 WK), Route [Inhibitor]: ORAL, Species: RAT, Strain/Sex: F344/MALE, Target Tissue: Type of Lesion: LIVER: HEPATOCELLULAR TUMOR, Dose [Carcinogen]: 50 PPM IN DIET FOR 76 WK). Moreover, the outcome (Carcinogen: 2-ACETYLAMINOFLUORENE, 53-96-3, Dose [Inhibitor]: 0, 300 PPM IN DIET CONCURRENTLY WITH CARCINOGEN FOR STUDY DURATION (STUDY DURATION: 76 WK), Route [Inhibitor]: ORAL, Species: RAT, Strain/Sex: F344/MALE, Target Tissue: Type of Lesion: LIVER: ADENOMA, Dose [Carcinogen]: 50 PPM IN DIET FOR 76 WK) is 19.2, 13.4, 30%, p<0.05.
